Assay results taken from article PMC10681007, “Targeted Degradation of XIAP is Sufficient and Specific to Induce Apoptosis in MYCN-overexpressing High-risk Neuroblastoma” (Cancer Research Communications, 2023).
Read-outs that look alike come from different tables or passages of the source. Starred links: 1 amine or outer side, 2 acyl side, 3 side chain; linkers in the order of their positions; H or OH if unused. Positions of bridges follow the written chain, without caps; N, C: chain ends. Non-standard residues stand in square brackets, D forms with d. Residues, ends and D or L forms follow the SMILES beside them. Chains are numbered I, II in the order given. Hexamethylenediamine = C(CCCN[*:2])CCN[*:1]; Dip = N[C@H](C(=O)O)C(c1ccccc1)c1ccccc1; Chg = N[C@H](C(=O)O)C1CCCCC1; NMeA = CN[C@@H](C)C(=O)O

Assays:
SK-N-AS = assay: RealTime-Glo MT cell viability assay; format: cell-based, Human
Description: (§1) Cell viability was measured in real time using RealTime-Glo MT Cell Viability Assay as according to manufacturer's instructions from Promega. Cells were seeded at 1 × 10^4 cells per well and treated with a range of doses of indicated antagonists, followed by continuous bioluminescence reading every 24 hours for 3 days using luminescent plate reader, Varioskan (SkanIT software). IC50 was determined using GraphPad Prism software.
(§2) To determine their efficacy in neuroblastoma, a panel of neuroblastoma cell lines including neuroblastoma patient-derived cell lines and noncancerous normal tissue-derived cell lines were treated with increasing doses of each antagonist (0–100 µmol/L), followed by real-time measurement of cell viability every 24 for 72 hours.

IMR-32 = assay: RealTime-Glo MT cell viability assay; format: cell-based, Human
Description: as §1, §2

BE(2)-C = assay: RealTime-Glo MT cell viability assay; format: cell-based, Human
Description: as §1, §2

[1] = system: NBL-07-0317 patient-derived neuroblastoma cells; assay: RealTime-Glo MT cell viability assay; format: cell-based, Human
Description: as §1, §2

CHP212 = assay: RealTime-Glo MT cell viability assay; format: cell-based, Human
Description: as §1, §2

NB1 = assay: RealTime-Glo MT cell viability assay; format: cell-based, Human
Description: as §1, §2

SK-N-SH = assay: RealTime-Glo MT cell viability assay; format: cell-based, Human
Description: as §1, §2

KELLY = assay: RealTime-Glo MT cell viability assay; format: cell-based, Human
Description: as §1, §2

[2] = system: NBL01-1116 patient-derived neuroblastoma cells; assay: RealTime-Glo MT cell viability assay; format: cell-based, Human
Description: as §1, §2

NLF = assay: RealTime-Glo MT cell viability assay; format: cell-based, Human
Description: as §1, §2

[3] = system: NBL16-0118 patient-derived neuroblastoma cells; assay: RealTime-Glo MT cell viability assay; format: cell-based, Human
Description: as §1, §2

[4] = system: NBL27-0218A patient-derived neuroblastoma cells; assay: RealTime-Glo MT cell viability assay; format: cell-based, Human
Description: as §1, §2

endogenous XIAP = biological target: T1, endogenous XIAP (Homo sapiens, UniProt P98170); assay: Degradation of endogenous luciferase-tagged XIAP (HiBiT/LgBiT), real-time luminescence; format: cell-based; conditions: for DC50: 8 hours, read-out: DC50, degradation curve at 8h
T1 construct: knock-in a bioluminescent tag at endogenous loci of XIAP; endogenous in cells; host or cells: BE(2)-C and KELLY cells, CRISPR/Cas9 HiBiT knock-in, stably transfected with LgBiT vector (Promega)
T1 sequence (P98170 whole entry): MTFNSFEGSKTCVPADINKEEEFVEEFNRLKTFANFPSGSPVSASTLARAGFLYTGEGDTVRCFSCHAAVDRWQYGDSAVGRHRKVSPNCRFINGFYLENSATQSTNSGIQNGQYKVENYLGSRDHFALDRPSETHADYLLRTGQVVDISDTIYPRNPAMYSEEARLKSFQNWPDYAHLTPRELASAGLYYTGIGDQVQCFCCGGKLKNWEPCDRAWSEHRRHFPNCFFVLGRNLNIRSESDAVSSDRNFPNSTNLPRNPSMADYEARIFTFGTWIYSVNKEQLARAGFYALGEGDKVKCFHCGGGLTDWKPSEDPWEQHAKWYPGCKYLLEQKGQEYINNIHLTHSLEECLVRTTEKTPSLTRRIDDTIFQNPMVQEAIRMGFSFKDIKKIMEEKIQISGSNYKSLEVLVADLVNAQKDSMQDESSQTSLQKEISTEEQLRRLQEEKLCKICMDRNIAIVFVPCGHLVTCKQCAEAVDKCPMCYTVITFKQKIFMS
Description: B, Degradation profiles of endogenous XIAP in response to A4 or BV6 treatment of neuroblastoma cells, BE(2)-C (top) and KELLY (bottom). Cells were treated with increasing dose of A4 or BV6 and luminescence was measured continuously in real time for 2 hours. Luminescence values were normalized to DMSO vehicle control and degradation profiles were generated using GraphPad Prism. Values were expressed as mean ± SD of three independent experiments conducted in duplicates.
(A) Degradation profiles of endogenous XIAP in response to A4 treatment of neuroblastoma cells, BE(2)-C and KELLY. (B) Degradation profiles of endogenous XIAP in response to BV6 treatment of neuroblastoma cells, BE(2)-C and KELLY. […] Cells were treated with increasing dose of A4 or BV6 and luminescence was measured continuously in real-time for 2 hours (A4) or 8 hours (BV6), respectively. Luminescence values were normalized to DMSO vehicle control and degradation profiles were generated using GraphPad Prism. Values were expressed as mean ± SD of three independent experiments.

HS5 cells = assay: Apoptosis (cleaved PARP/caspase-3, Caspase-Glo 3/7); format: cell-based; conditions: 10 µmol/L
Description: The determination of caspase-3/7 levels as an indication for apoptosis activity was performed using a Caspase-Glo 3/7 assay kit from Promega according to manufacturer's instructions. Cells were seeded at 1 × 10^4 cells per well and treated with 10 µmol/L of IAP antagonists for various indicated timings, followed by bioluminescence measurement using luminescent plate reader, Tecan Infinite200 Pro. The activity of apoptosis was also measured by flow cytometry using the Dead Cell Apoptosis Kit with Annexin V FITC and PI (Thermo Fisher Scientific) according to manufacturer's instructions. Cells harvested from lentiviral infection were subjected to Annexin V (2.5 µL) and PI (40 ng/mL, 0.5 µL) staining, followed by flow cytometric analysis using BD LSRFortessa cell analyzer with excitation/emission spectra of 494 nm/518 nm for FITC and 535 nm/617 nm for PI.
FIGURE 2 Specific loss of XIAP expression, not c-IAP1, is required for mediating apoptosis in high-risk neuroblastoma cells. A, Summary of IAP antagonists’ efficacy in killing neuroblastoma cells. […] C, Graphical representation showing the fold change of caspase-3/7 activity relative to vehicle controls after treatment with 10 µmol/L of either A4, B3, or BV6 at indicated timings (data were expressed as mean ± SD of three independent experiments conducted in duplicates; *, P < 0.05). […]

`CN[C@@H](C)C(=O)N[C@H](C(=O)N1CCC[C@H]1C(=O)N[C@H](C(=O)NCCCCCCNC(=O)[C@@H](NC(=O)[C@@H]1CCCN1C(=O)[C@@H](NC(=O)[C@H](C)NC)C1CCCCC1)C(c1ccccc1)c1ccccc1)C(c1ccccc1)c1ccccc1)C1CCCCC1` [BV6] (I: H-[NMeA][Chg]P[Dip] / II: H-[NMeA][Chg]P[Dip]; linker I:C-II:C via Hexamethylenediamine) showed an IC50 (SK-N-AS; 24 hours) of 4.6 µM, an IC50 (SK-N-AS; 48 hours) of 3.2 µM and an IC50 (SK-N-AS; 72 hours) of 2.6 µM. It also gave an IC50 (IMR-32; IMR-32, 24 hours) of 7.4 µM, an IC50 (IMR-32; IMR-32, 48 hours) of 5.8 µM and an IC50 (IMR-32; IMR-32, 72 hours) of 4.3 µM. For the same compound, the IC50 (BE(2)-C; 24 hours) was 21.2 µM, the IC50 (BE(2)-C; 48 hours) was 16.8 µM and the IC50 (BE(2)-C; 72 hours) was 16.5 µM. For the same compound, the IC50 ([1]; NBL-07-0317, 24 hours) was 8.1 µM, the IC50 ([1]; NBL-07-0317, 48 hours) was 5.5 µM and the IC50 ([1]; NBL-07-0317, 72 hours) was 4.8 µM. For the same compound, the IC50 (CHP212; CHP212, 24 hours) was 10.4 µM, the IC50 (CHP212; CHP212, 48 hours) was 9.9 µM and the IC50 (CHP212; CHP212, 72 hours) was 9.3 µM. For the same compound, the IC50 (NB1; NB1, 24 hours) was 7 µM, the IC50 (NB1; NB1, 48 hours) was 5.5 µM and the IC50 (NB1; NB1, 72 hours) was 3.8 µM. It also gave an IC50 (SK-N-SH; 24 hours) of 12.4 µM, an IC50 (SK-N-SH; 48 hours) of 10.5 µM and an IC50 (SK-N-SH; 72 hours) of 9.7 µM. It also gave an IC50 (KELLY; 24 hours) of 13.5 µM, an IC50 (KELLY; 48 hours) of 12.9 µM and an IC50 (KELLY; 72 hours) of 10.1 µM. For the same compound, the IC50 ([2]; NBL01-1116, 24 hours) was 14.5 µM, the IC50 ([2]; NBL01-1116, 48 hours) was 9.3 µM and the IC50 ([2]; NBL01-1116, 72 hours) was 8.5 µM. The IC50 (NLF; 24 hours) was 7.4 µM, the IC50 (NLF; 48 hours) was 3.8 µM and the IC50 (NLF; 72 hours) was 3.7 µM. The IC50 ([3]; NBL16-0118, 24 hours) was 5.1 µM, the IC50 ([3]; NBL16-0118, 48 hours) was 2.8 µM and the IC50 ([3]; NBL16-0118, 72 hours) was 2.3 µM. It also gave an IC50 ([4]; 24 hours) of 5.9 µM, an IC50 ([4]; 48 hours) of 3.6 µM and an IC50 ([4]; 72 hours) of 2.6 µM. The “degradation of XIAP” value (endogenous XIAP; 2 hours' exposure, BE(2)-C and KELLY) was “minimal degradation of XIAP”, the DC50 (endogenous XIAP; BE(2)-C) was 44.5 µM and the DC50 (endogenous XIAP; KELLY) was 32 µM. The apoptosis (HS5 cells) was “significant apoptosis”.
